Results taken from article PMC5746216, “CYP51 is an essential drug target for the treatment of primary amoebic meningoencephalitis (PAM)” (PLoS Neglected Tropical Diseases, 2017).

Experiments:
[1] = biological target: T1, sterol 14-demethylase (NfCYP51) (Naegleria fowleri, UniProt A0A2H4A2U9); experiment: co-crystal structure at […] Å; UV-vis type II titration; type: binding
T1 construct: gene NF0102700; 34 N-terminal membrane anchoring residues replaced with MAKKTSSKGKL
T1 sequence (A0A2H4A2U9 12-460): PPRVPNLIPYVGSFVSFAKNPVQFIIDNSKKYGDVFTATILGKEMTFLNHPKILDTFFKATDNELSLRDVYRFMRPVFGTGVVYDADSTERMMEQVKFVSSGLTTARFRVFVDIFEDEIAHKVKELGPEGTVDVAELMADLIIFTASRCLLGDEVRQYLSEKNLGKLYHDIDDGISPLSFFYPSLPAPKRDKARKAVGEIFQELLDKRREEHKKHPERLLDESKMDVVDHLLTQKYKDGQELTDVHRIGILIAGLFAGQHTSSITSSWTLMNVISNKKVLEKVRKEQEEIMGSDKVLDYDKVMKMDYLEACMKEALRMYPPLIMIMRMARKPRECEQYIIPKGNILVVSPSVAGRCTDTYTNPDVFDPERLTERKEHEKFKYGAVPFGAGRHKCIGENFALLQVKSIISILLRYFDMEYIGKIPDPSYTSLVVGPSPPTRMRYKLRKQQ

[2] = biological target: T1, sterol 14-demethylase (NfCYP51); experiment: UV-vis spectral binding titration (type I difference spectrum)

OC(Cn1cncn1)(Cn1cncn1)c1ccc(F)cc1F [Fluconazole] was tested, and the “co-crystal structure at 2.70 Å; UV-vis type II titration” value [1] was “fluconazole, binds NfCYP51 with affinity roughly an order of magnitude exceeding that of natural substrate, 31-norlanosterol”.

CC(C)=CCC[C@@H](C)[C@H]1CC[C@@]2(C)C3=C(CC[C@]12C)[C@@]1(C)CC[C@H](O)[C@@H](C)[C@@H]1CC3 [compound 14, 31-Norlanosterol] was tested, and the Kd [2] was 124 ± 25 nM.
